Among the data in ChEMBL document CHEMBL1158860, “New Diosgenin Glycosides from Costus afer” (J Nat Prod, 1997) are Activity values, retold here.

Calls of active or inactive are those of the source. The calls are words filed in the database; no cut-off is given here.

The test relates to HL-60. The test is described as follows: Potentiation of cisplatin cytotoxicity against human HL60 cells. The class given is functional, cell-based.
Consider `C[C@@H]1CC[C@@]2(OC1)O[C@H]1C[C@H]3[C@@H]4CC=C5C[C@@H](O[C@@H]6O[C@H](CO)[C@@H](O[C@@H]7OC[C@](O)(CO)[C@H]7O)[C@H](O)[C@H]6O[C@@H]6O[C@@H](C)[C@H](O)[C@@H](O)[C@H]6O)CC[C@]5(C)[C@H]4CC[C@]3(C)[C@H]1[C@@H]2C`, for which the result was inactive.
Then `CC(=O)O[C@@H]1[C@@H](O)[C@@H](O)[C@H](O[C@H]2[C@H](O[C@H]3CC[C@@]4(C)C(=CC[C@H]5[C@@H]6C[C@@H]7O[C@]8(CC[C@@H](C)CO8)[C@@H](C)[C@@H]7[C@@]6(C)CC[C@@H]54)C3)O[C@H](CO)[C@@H](O[C@@H]3OC[C@](O)(CO)[C@H]3O)[C@@H]2O)O[C@H]1C`, with “inactive”; and `C[C@@H]1CC[C@@]2(OC1)O[C@H]1C[C@H]3[C@@H]4CC=C5C[C@@H](O[C@@H]6O[C@H](CO)[C@@H](O[C@@H]7OC[C@](O)(CO)[C@H]7O)[C@H](O)[C@H]6O)CC[C@]5(C)[C@H]4CC[C@]3(C)[C@H]1[C@@H]2C`, with “inactive”; and `C[C@@H]1CC[C@@]2(OC1)O[C@H]1C[C@H]3[C@@H]4CC=C5C[C@@H](O[C@@H]6O[C@H](CO)[C@@H](O[C@@H]7O[C@@H](C)[C@H](O)[C@@H](O)[C@H]7O)[C@H](O)[C@H]6O[C@@H]6O[C@@H](C)[C@H](O)[C@@H](O)[C@H]6O)CC[C@]5(C)[C@H]4CC[C@]3(C)[C@H]1[C@@H]2C`, with “inactive”.
